Laboratory results taken from ChEMBL document CHEMBL1909046, “DrugMatrix in vitro pharmacology data”.
pIC50: −log10 of the molar value.

Legend:
[1] = molecular target: Beta-2 adrenergic receptor (Homo sapiens, UniProt P07550); assay: DRUGMATRIX: Adrenergic beta2 radioligand binding (ligand: [3H] CGP-12177); format: cell membranes, CHO, Membrane; details: cho; Not Active = under 50% inhibition at 10 µM
B2 bradykinin receptor = molecular target: T1, B2 bradykinin receptor (Homo sapiens, UniProt P30411); format: cell membranes, Membrane; details: chem-1; note: in other assays of this panel Not Active means under 50% inhibition at 10 µM
T1 sequence (P30411 whole entry): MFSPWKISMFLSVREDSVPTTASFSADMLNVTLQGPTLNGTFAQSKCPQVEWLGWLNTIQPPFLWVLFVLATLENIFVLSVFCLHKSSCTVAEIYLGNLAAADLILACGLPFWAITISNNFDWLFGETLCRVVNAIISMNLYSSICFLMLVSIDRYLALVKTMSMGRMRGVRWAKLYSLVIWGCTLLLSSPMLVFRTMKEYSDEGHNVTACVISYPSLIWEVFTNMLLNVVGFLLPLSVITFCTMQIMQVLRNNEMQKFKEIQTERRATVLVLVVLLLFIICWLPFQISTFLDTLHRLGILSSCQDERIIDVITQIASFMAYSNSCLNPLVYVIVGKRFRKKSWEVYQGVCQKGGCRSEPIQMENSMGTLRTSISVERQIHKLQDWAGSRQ

[2] = molecular target: C-C chemokine receptor type 2 (Homo sapiens, UniProt P41597); format: cell membranes, CHO-K1, Membrane; details: cho-k1; note: in other assays of this panel Not Active means under 50% inhibition at 10 µM
Chain of C-C chemokine receptor type 2 (P41597 whole entry): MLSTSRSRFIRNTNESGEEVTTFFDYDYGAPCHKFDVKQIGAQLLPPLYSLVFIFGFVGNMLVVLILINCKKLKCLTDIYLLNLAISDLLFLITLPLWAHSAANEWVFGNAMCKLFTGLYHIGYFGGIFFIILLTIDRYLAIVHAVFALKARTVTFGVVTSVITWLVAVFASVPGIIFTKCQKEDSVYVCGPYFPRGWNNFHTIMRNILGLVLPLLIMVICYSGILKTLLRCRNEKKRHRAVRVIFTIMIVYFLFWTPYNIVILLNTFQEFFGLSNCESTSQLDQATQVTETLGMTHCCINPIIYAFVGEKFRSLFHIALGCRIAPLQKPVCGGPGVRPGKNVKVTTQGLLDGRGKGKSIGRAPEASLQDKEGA

[3] = molecular target: T2, C-X-C chemokine receptor type 2 (Homo sapiens, UniProt P25025); format: cell membranes, CHO-K1, Membrane; details: cho-k1; note: in other assays of this panel Not Active means under 50% inhibition at 10 µM
T2 sequence (P25025 whole entry): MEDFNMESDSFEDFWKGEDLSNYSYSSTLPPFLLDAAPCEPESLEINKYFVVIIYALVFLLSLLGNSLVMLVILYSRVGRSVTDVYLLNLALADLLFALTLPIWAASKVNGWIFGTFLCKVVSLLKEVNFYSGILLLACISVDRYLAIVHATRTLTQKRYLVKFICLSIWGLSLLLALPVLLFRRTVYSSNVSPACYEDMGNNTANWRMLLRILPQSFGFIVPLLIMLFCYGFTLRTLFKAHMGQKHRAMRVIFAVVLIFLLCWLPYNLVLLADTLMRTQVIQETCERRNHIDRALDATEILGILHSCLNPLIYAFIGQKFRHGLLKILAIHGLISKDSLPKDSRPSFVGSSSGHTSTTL

[4] = molecular target: Epidermal growth factor receptor (Homo sapiens, UniProt P00533); assay: DRUGMATRIX: Protein Tyrosine Kinase, EGF Receptor enzyme inhibition (substrate: Poly(Glu:Tyr)); format: cell-based, Insect cells; details: Not Active = under 50% inhibition at 10 µM; for pIC50: read-out: IC50
[5] = molecular target: Tyrosine-protein kinase Fyn (Homo sapiens, UniProt P06241); assay: biochemical; format: cell-based, Insect cells; details: insect cells;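 note: enzymatic inhibition of Fyn kinase activity measured with Poly(Glu:Tyr) as the phosphorylation substrate; in other assays of this panel Not Active means under 50% inhibition at 10 µM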
Chain of Tyrosine-protein kinase Fyn (P06241 whole entry): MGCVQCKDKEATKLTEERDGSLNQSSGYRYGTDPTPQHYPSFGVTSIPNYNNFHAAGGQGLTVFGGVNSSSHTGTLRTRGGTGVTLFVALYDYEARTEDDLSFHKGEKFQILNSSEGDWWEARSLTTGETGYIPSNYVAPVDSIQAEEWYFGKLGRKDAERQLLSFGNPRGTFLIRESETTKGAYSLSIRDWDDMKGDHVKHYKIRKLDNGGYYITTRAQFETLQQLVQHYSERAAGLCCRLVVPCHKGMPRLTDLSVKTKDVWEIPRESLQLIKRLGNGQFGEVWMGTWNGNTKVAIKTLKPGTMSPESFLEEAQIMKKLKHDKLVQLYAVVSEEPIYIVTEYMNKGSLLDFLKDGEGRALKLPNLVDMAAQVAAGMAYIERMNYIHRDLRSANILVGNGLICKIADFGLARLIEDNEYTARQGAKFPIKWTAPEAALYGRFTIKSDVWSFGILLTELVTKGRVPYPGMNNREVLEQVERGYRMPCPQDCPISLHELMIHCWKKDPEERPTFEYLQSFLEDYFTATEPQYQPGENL

[6] = DRUGMATRIX: Purinergic P2X radioligand binding (ligand: [3H] alpha, beta-Methylene-ATP); format: cell membranes, Oryctolagus cuniculus, New Zealand albino, Urinary bladder, Membrane; details: Not Active = under 50% inhibition at 10 µM
Cytochrome P450 2C9 = Cytochrome P450 2C9 (Homo sapiens, UniProt P11712); details: bti-tn-5b1-4; note: in other assays of this panel Not Active means under 50% inhibition at 10 µM
Chain of Cytochrome P450 2C9 (P11712 whole entry): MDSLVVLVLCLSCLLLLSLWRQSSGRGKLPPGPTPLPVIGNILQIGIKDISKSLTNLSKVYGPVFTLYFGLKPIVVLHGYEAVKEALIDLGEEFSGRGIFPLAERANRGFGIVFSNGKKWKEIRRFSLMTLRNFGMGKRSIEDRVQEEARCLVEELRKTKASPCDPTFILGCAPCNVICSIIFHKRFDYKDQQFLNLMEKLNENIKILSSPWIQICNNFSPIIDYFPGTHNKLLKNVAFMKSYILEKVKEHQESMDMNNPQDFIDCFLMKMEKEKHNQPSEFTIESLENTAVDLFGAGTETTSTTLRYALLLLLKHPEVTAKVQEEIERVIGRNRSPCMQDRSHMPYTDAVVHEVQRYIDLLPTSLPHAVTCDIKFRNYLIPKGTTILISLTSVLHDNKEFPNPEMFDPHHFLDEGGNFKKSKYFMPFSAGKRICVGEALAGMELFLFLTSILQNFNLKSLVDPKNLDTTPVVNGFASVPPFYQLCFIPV

Compound | IC50 [1] | IC50 (B2 bradykinin receptor) | IC50 [2] | IC50 [3] | IC50 ([4]; insect cells) | IC50 [5] | IC50 [6] | Ki [6] | IC50 (Cytochrome P450 2C9) | Ki (Cytochrome P450 2C9) | Ki [1] | Ki (B2 bradykinin receptor) | Ki [2] | Ki [3] | pIC50 ([4]; insect cells) | pIC50 [4]
C[C@H]1C[C@H]2[C@@H]3CCC4=CC(=O)C=C[C@]4(C)[C@@]3(F)[C@@H](O)C[C@]2(C)[C@@]1(O)C(=O)CO [BETAMETHASONE] | Not Active | Not Active | Not Active | Not Active | Not Active | Not Active | Not Active | Not Active |  |  |  |  |  |  |  | 
CC(C)NCC(O)COc1ccc(CC(N)=O)cc1 (stereo not given) [ATENOLOL] |  | Not Active | Not Active | Not Active | Not Active | Not Active | Not Active | Not Active |  |  |  |  |  |  |  | 
O=C1c2ccccc2C(=O)C1c1ccccc1 [PHENINDIONE] | Not Active | Not Active | Not Active | Not Active | Not Active | Not Active | Not Active | Not Active | Not Active | Not Active |  |  |  |  |  | 
CCCCCCNC(=O)n1cc(F)c(=O)[nH]c1=O [CARMOFUR] | Not Active | Not Active | Not Active | Not Active | Not Active | Not Active | Not Active | Not Active | Not Active | Not Active |  |  |  |  |  | 
O=c1[nH]cnc2c1ncn2[C@H]1CC[C@@H](CO)O1 [DIDANOSINE] | Not Active | Not Active | Not Active | Not Active | Not Active | Not Active | Not Active | Not Active | Not Active | Not Active |  |  |  |  |  | 
CC(=O)Nc1ccc2c(c1)Cc1ccccc1-2 [2-ACETYLAMINOFLUORENE] | Not Active | Not Active | Not Active | Not Active | Not Active | Not Active | Not Active | Not Active | Not Active | Not Active |  |  |  |  |  | 
CC(C)(c1ccc(O)cc1)c1ccc(O)cc1 [BISPHENOL A] | Not Active | Not Active | Not Active | Not Active | Not Active | Not Active | Not Active | Not Active | Not Active | Not Active |  |  |  |  |  | 
CO[C@H]1O[C@@H]2O[C@@]3(C)CC[C@H]4[C@H](C)CC[C@@H]([C@H]1C)[C@@]24OO3 | Not Active | Not Active | Not Active | Not Active | Not Active | Not Active | Not Active | Not Active | Not Active | Not Active |  |  |  |  |  | 
C#C[C@]1(O)CC[C@H]2[C@@H]3CCC4=CC(=O)CC[C@@H]4[C@H]3CC[C@@]21C [NORETHINDRONE] | Not Active | Not Active | Not Active | Not Active | Not Active | Not Active | Not Active | Not Active |  |  |  |  |  |  |  | 
CN(Cc1cc(Br)cc(Br)c1N)C1CCCCC1 [BROMHEXINE] | Not Active | Not Active | Not Active | Not Active | Not Active | Not Active | Not Active | Not Active | Not Active | Not Active |  |  |  |  |  | 
CC12CCC(CC1=O)C2(C)C (stereo not given) [CAMPHOR] | Not Active | Not Active | Not Active | Not Active | Not Active | Not Active | Not Active | Not Active | Not Active | Not Active |  |  |  |  |  | 
C[C@@H]1[C@H](O)[C@@H](C)/C=C/C=C/C=C/C=C/C=C/C=C/C=C/[C@H](O[C@@H]2O[C@H](C)[C@@H](O)[C@H](N)[C@@H]2O)C[C@@H]2O[C@](O)(C[C@@H](O)C[C@@H](O)[C@H](O)CC[C@@H](O)C[C@@H](O)CC(=O)O[C@H]1C)C[C@H](O)[C@H]2C(=O)O [AMPHOTERICIN B] | Not Active | Not Active | Not Active | Not Active | Not Active | Not Active | Not Active | Not Active | Not Active | Not Active |  |  |  |  |  | 
Nc1ccc(Cc2ccc(N)cc2)cc1 | Not Active | Not Active | Not Active | Not Active | Not Active | Not Active | Not Active | Not Active | Not Active | Not Active |  |  |  |  |  | 
CCN(CCO)CCCC(C)Nc1ccnc2cc(Cl)ccc12 (stereo not given) [HYDROXYCHLOROQUINE] | Not Active | Not Active | Not Active | Not Active | Not Active | Not Active | Not Active | Not Active |  |  |  |  |  |  |  | 
O=C(O)COC(=O)Cc1ccccc1Nc1c(Cl)cccc1Cl [ACECLOFENAC] | Not Active | Not Active | Not Active | Not Active | Not Active | Not Active | Not Active | Not Active | Not Active | Not Active |  |  |  |  |  | 
O=C(O)CCc1nc(-c2ccccc2)c(-c2ccccc2)o1 [OXAPROZIN] | Not Active | Not Active | Not Active | Not Active | Not Active | Not Active | Not Active | Not Active | Not Active | Not Active |  |  |  |  |  | 
CC[C@H]1OC(=O)[C@H](C)[C@@H](O[C@H]2C[C@@](C)(OC)[C@@H](O)[C@H](C)O2)[C@H](C)[C@@H](O[C@@H]2O[C@H](C)C[C@H](N(C)C)[C@H]2O)[C@](C)(O)C[C@@H](C)C(=O)[C@H](C)[C@@H](O)[C@]1(C)O [ERYTHROMYCIN] | Not Active | Not Active | Not Active | Not Active | Not Active | Not Active | Not Active | Not Active |  |  |  |  |  |  |  | 
CNC[C@H](O)c1ccc(O)c(O)c1 [EPINEPHRINE] |  | Not Active | Not Active | Not Active | Not Active | Not Active | Not Active | Not Active | Not Active | Not Active |  |  |  |  |  | 
CHROMIC CHLORIDE | Not Active | Not Active | Not Active | Not Active |  |  | Not Active | Not Active | Not Active | Not Active | Not Active | Not Active | Not Active | Not Active | 5.53 | 
CN(CCOc1ccc(C[C@H](Nc2ccccc2C(=O)c2ccccc2)C(=O)O)cc1)c1ccccn1 | Not Active | Not Active | Not Active | Not Active |  | Not Active | Not Active | Not Active |  |  |  |  |  |  |  | 4.96
COc1ccccc1OCCNCC(O)COc1cccc2[nH]c3ccccc3c12 (stereo not given) [CARVEDILOL] |  | Not Active | Not Active | Not Active | Not Active | Not Active | Not Active | Not Active | Not Active | Not Active |  |  |  |  |  | 
COc1ccc(Cl)cc1C(=O)NCCc1ccc(S(=O)(=O)NC(=O)NC2CCCCC2)cc1 [GLYBURIDE] | Not Active | Not Active | Not Active | Not Active | Not Active | Not Active | Not Active | Not Active |  |  |  |  |  |  |  | 
O=C(O)CNCP(=O)(O)O [GLYPHOSATE] | Not Active | Not Active | Not Active | Not Active | Not Active | Not Active | Not Active | Not Active |  |  |  |  |  |  |  | 
COc1cc([C@@H]2c3cc4c(cc3[C@H](O)[C@H]3COC(=O)[C@H]23)OCO4)cc(OC)c1OC [PODOFILOX] | Not Active | Not Active | Not Active | Not Active | Not Active | Not Active | Not Active | Not Active |  |  |  |  |  |  |  | 
NS(=O)(=O)c1cc(C(=O)O)c(NCc2ccco2)cc1Cl [FUROSEMIDE] | Not Active | Not Active | Not Active | Not Active | Not Active | Not Active | Not Active | Not Active |  |  |  |  |  |  |  | 
